Assay results reported in patent US11690810B2, “Combination treatment of bacterial infection” (The Chinese University of Hong Kong, priority 2018, dated 2023).
Like-named read-outs stand apart in the source and are kept apart here.

Legend:
[1] = system: S. aureus SA-RN4220-pUL5054 (RN4220); experiment: MIC and checkerboard (FIC) assay; details: Staphylococcus aureus; for MIC99: read-out: MIC 99.9
MRSA SA-ST239 = experiment: MIC and checkerboard (FIC) assay; details: for MIC / MIC90 / MIC99: Staphylococcus aureus, MRSA; for MIC99: read-out: MIC 99.9
CA-MRSA strain ST30 = experiment: MIC and checkerboard (FIC) assay; type: cell-based, Staphylococcus aureus; details: Staphylococcus aureus, MRSA
[2] = system: S. aureus SA-1199B (NorA efflux pump overexpressed); experiment: MIC and checkerboard (FIC) assay; details: for MIC90 / MIC99 / MIC: Staphylococcus aureus; for MIC99: read-out: MIC 99.9
[3] = system: internalization of MRSA strain JE-2 by HaCat keratinocytes; experiment: Internalization of S. aureus by HaCaT keratinocytes; type: cell-based, Staphylococcus aureus
[4] = system: S. aureus SA-ANT4′ (ANT4), resistant to fusidic acid; experiment: MIC and checkerboard (FIC) assay; details: for MIC90 / MIC99 / MIC: Staphylococcus aureus; for MIC99: read-out: MIC 99.9
[5] = system: S. aureus SA-APH2″-AAC6′ (APH2), resistant to gentamicin; experiment: MIC and checkerboard (FIC) assay; details: for MIC99: read-out: MIC 99.9
[6] = system: S. aureus SA-APH3′ (APH3), resistant to kanamycin; experiment: MIC and checkerboard (FIC) assay; details: Staphylococcus aureus; for MIC99: read-out: MIC 99.9
[7] = system: panel of laboratory MRSA strains; experiment: MIC and combination tests, panel of laboratory strains; details: tanshinone highest tested concentration 128 μg/ml
[8] = system: S. aureus ATCC25923 (methicillin sensitive); experiment: MIC and checkerboard (FIC) assay; details: Staphylococcus aureus; for MIC90: ATCC25923; for MIC99: ATCC25923, read-out: MIC 99.9
[9] = system: adherence of MRSA strain JE-2 to HaCat keratinocytes; experiment: Bacterial adherence to HaCaT keratinocytes; type: cell-based, Staphylococcus aureus; details: varying concentrations of baicalein
[10] = system: adherence of MRSA strain JE-2 to fibrinogen; experiment: Fibrinogen-binding adherence assay (crystal violet); type: cell-based, Staphylococcus aureus; details: varying concentrations
[11] = system: bacterial aggregation of MRSA JE-2; experiment: Aggregation assay of MRSA JE-2; type: cell-based, Staphylococcus aureus; details: JE-2; varying concentrations
[12] = system: NorA overexpressed S. aureus; details: NorA overexpressed S. aureus, cited from earlier work
HA MRSA W238 = experiment: MIC and checkerboard (FIC) assay
HA MRSA W231 = experiment: MIC and checkerboard (FIC) assay
HA MRSA W233 = experiment: MIC and checkerboard (FIC) assay
[13] = system: clinical fusidic acid resistant MRSA strain 96591; experiment: MIC and checkerboard (FIC) assay; type: cell-based, Staphylococcus aureus
[14] = system: clinical fusidic acid resistant MRSA strain 73621; experiment: MIC and checkerboard (FIC) assay; type: cell-based, Staphylococcus aureus
[15] = system: clinical fusidic acid resistant MRSA strain 82356; experiment: MIC and checkerboard (FIC) assay; type: cell-based, Staphylococcus aureus
[16] = read-out: Activity (MIC, μg/ml)
[17] = read-out: Minimum inhibitory concentration to compound (MIC)
[18] = ST239, ECG with WQD-169 (Kuraridin)
[19] = APH2″-AAC6′, ECG with WQD-169 (Kuraridin)

For `C=C(C)C(CC=C(C)C)Cc1c(OC)cc(OC)c(C(=O)/C=C/c2ccc(O)cc2)c1OC` (stereo not drawn) [WQD-101], the MIC [1, 16] was > 256 µg/mL, the MIC (MRSA SA-ST239; [16]) was > 256 µg/mL and the MIC (CA-MRSA strain ST30; [16]) was > 256 µg/mL.

For `O=c1cc(-c2ccccc2)oc2cc(O)c(O)c(O)c12` [Baicalein, 5,6,7-trihydroxyflavone], the MIC90 [1] was 64 µg/mL, the MIC99 [1] was > 512 µg/mL and the FIC ([2]; 1199B, Baicalein with ECG) was 0.0625. The MIC combine ([2]; 1199B, Baicalein with ECG) was 8 µg/mL, the MIC90 [2] was 128 µg/mL and the MIC99 [2] was > 512 µg/mL. The MIC ([2]; read-out: MIC alone, 1199B, Baicalein and ECG section) was 512 µg/mL, the “decrease in the internalization as compared to the WT strain” value ([3]; 4 μg/ml (baicalein)) was 2.7 fold and the “internalization lower as compared to the mutant ΔSrtA” value ([3]; 64 μg/ml of baicalein) was 1.9 fold. For the same compound, the “reduction in internalization as compared to the WT strain” value ([3]; 64 μg/ml of baicalein) was 5 fold, the MIC90 (MRSA SA-ST239) was 128 µg/mL and the MIC99 (MRSA SA-ST239) was > 512 µg/mL. The MIC90 [4] was 128 µg/mL, the MIC99 [4] was > 512 µg/mL and the MIC90 ([5]; Staphylococcus aureus) was 128 µg/mL. For the same compound, the MIC99 ([5]; Staphylococcus aureus) was > 512 µg/mL, the MIC90 [6] was 64 µg/mL and the MIC99 [6] was > 512 µg/mL. The “activity against the tested MRSA strains when used alone” value [7] was “relatively weak”, the MIC90 [8] was 128 µg/mL and the MIC99 [8] was > 512 µg/mL. For the same compound, the “average decrease in the adherence of the WT strain to HaCaT cells” value [9] was 3.5 fold, the fibrinogen-binding adherence [10] was “minimal reduction in adherence” and the bacterial aggregation [11] was “reduced”.

For `COc1ccc2cc3[n+](cc2c1OC)CCc1cc2c(cc1-3)OCO2` [Berberine], the MIC90 [1] was 256 µg/mL, the MIC99 [1] was > 512 µg/mL and the MIC90 [2] was 256 µg/mL. The MIC99 [2] was > 512 µg/mL, the MIC90 (MRSA SA-ST239) was 256 µg/mL and the MIC99 (MRSA SA-ST239) was > 512 µg/mL. For the same compound, the MIC90 [4] was 256 µg/mL, the MIC99 [4] was > 512 µg/mL and the MIC90 ([5]; Staphylococcus aureus) was 256 µg/mL. The MIC99 ([5]; Staphylococcus aureus) was > 512 µg/mL, the MIC90 [6] was 128 µg/mL and the MIC99 [6] was > 512 µg/mL. For the same compound, the “antimicrobial action (MIC) potentiated” value ([12]; with multidrug pump inhibitor 5′-methoxyhydnocarpin) was 2 µg/mL, the “antimicrobial action (MIC) alone” value ([12]; without pump inhibitor) was 32 µg/mL and the “activity against the tested MRSA strains when used alone” value [7] was “relatively weak”. The MIC90 [8] was 256 µg/mL, the MIC99 [8] was > 512 µg/mL and the fibrinogen-binding adherence [10] was “dose-dependent reduction of adherence”. The bacterial aggregation [11] was “reduced”.

In the case of `C=C(C)C(CC=C(C)C)Cc1c(OC)cc(OC)c(C(=O)/C=C/c2ccc(O)cc2O)c1OC` (stereo not drawn) [Compound B], the MIC [1, 16] is reported as 64 µg/mL.

In the case of gentamicin [reference compound], the MIC alone (HA MRSA W238; W238 (gentamicin resistant)) is reported as 512 µg/mL, the FIC (HA MRSA W238; W238, ECG+Kur+Gen) is reported as 0.03 and the MIC combine (HA MRSA W238; W238, ECG+Kur+Gen) is reported as 16 µg/mL. The MIC alone (HA MRSA W231; W231 (gentamicin resistant)) was 64 µg/mL, the FIC (HA MRSA W231; W231, ECG+Kur+Gen) was 0.015 and the MIC combine (HA MRSA W231; W231, ECG+Kur+Gen) was 1 µg/mL. The MIC alone ([5]; APH2 (gentamicin resistant)) was > 512 µg/mL, the MIC alone ([5]; APH2 (gentamicin resistant), listed as Gen) was 512 µg/mL and the FIC ([5]; APH2, ECG+Kur+Gen) was 0.0312. It also gave an MIC combine ([5]; APH2, ECG+Kur+Gen) of 16 µg/mL, an MIC alone (HA MRSA W233; W233 (gentamicin resistant)) of 512 µg/mL and an FIC (HA MRSA W233; W233, ECG+Kur+Gen) of 0.03. The MIC combine (HA MRSA W233; W233, ECG+Kur+Gen) was 16 µg/mL.

`C=C(C)C(CC=C(C)C)Cc1c(O)cc(OC)c(C(=O)/C=C/c2ccc(O)cc2O)c1O` (stereo not drawn) [WQD-169, (E)-1-(2,4-dihydroxy-6-methoxy-3-(5-methyl-2-(prop-1-en-2-yl)hex-4-en-1-yl)phenyl)-3-(2,4-dihydroxyphenyl)prop-2-en-1-one] showed an MIC [1, 17] of 8 µg/mL, an MIC ([2]; read-out: Minimum inhibitory concentration to compound (MIC), 1199B′, Table 8) of 8 µg/mL and an FIC (MRSA SA-ST239; [18]) of 0.5. For the same compound, the MIC combine (MRSA SA-ST239; [18]) was 4 µg/mL, the MIC (MRSA SA-ST239; [16]) was 8 µg/mL and the MIC (MRSA SA-ST239; read-out: MIC alone) was 8 µg/mL. The MIC [4, 17] was 8 µg/mL, the FIC [5, 19] was 0.25 and the MIC combine [5, 19] was 2 µg/mL. The MIC ([5]; Staphylococcus aureus, read-out: Minimum inhibitory concentration to compound (MIC)) was 8 µg/mL, the MIC alone ([5]; Strain APH2″-AAC6′, Table 9) was 8 µg/mL and the MIC [6, 17] was 8 µg/mL. It also gave an MIC (CA-MRSA strain ST30; ST30, Table 8, read-out: Minimum inhibitory concentration to compound (MIC)) of 8 µg/mL and an MIC (CA-MRSA strain ST30; ST30, read-out: Activity (MIC, μg/ml)) of 8 µg/mL.

Work on `CC(=O)O[C@H]1C[C@@]2(C)[C@@H](C[C@@H](O)[C@H]3[C@@]4(C)CC[C@@H](O)[C@@H](C)[C@@H]4CC[C@@]32C)/C1=C(\CCC=C(C)C)C(=O)O` [Fusidic acid, fusidic acid, reference compound] yielded an FIC ([13]; 96591, ECG+Kur+Fus) of 0.03, an MIC combine ([13]; 96591, ECG+Kur+Fus) of 1 µg/mL and an MIC ([13]; Staphylococcus aureus, MRSA, 96591 (fusidic acid resistant), read-out: MIC alone) of 32 µg/mL. For the same compound, the FIC ([4]; ANT4, ECG+Kur+Fus) was 0.125, the MIC combine ([4]; ANT4, ECG+Kur+Fus) was 4 µg/mL and the MIC combine ([4]; ANT4, ECG+Kur+Fus, listed as Fus) was 8 µg/mL. For the same compound, the MIC ([4]; read-out: MIC alone) was 64 µg/mL, the FIC ([14]; 73621, ECG+Kur+Fus) was 0.03 and the MIC combine ([14]; 73621, ECG+Kur+Fus) was 1 µg/mL. The MIC ([14]; Staphylococcus aureus, MRSA, 73621 (fusidic acid resistant), read-out: MIC alone) was 32 µg/mL, the FIC ([15]; 82356, ECG+Kur+Fus) was 0.03 and the MIC combine ([15]; 82356, ECG+Kur+Fus) was 1 µg/mL. It also gave an MIC ([15]; Staphylococcus aureus, MRSA, 82356 (fusidic acid resistant), read-out: MIC alone) of 32 µg/mL.
